Measured values: patent US9416125B2, “Substituted cycloalkenopyrazoles as BUB1 inhibitors for the treatment of cancer” (BAYER PHARMA AKTIENGESELLSCHAFT, priority 2012, dated 2016)
Values belong to the compound of their own block, whether it stands above or below them.

Columns and labels:
HeLa cell line = assay: Proliferation assay (crystal violet staining); type: cell-based; conditions: Homo sapiens, 96 h, 4 days incubation, range 0.001-10 μM, median, read-out: Biological Assay 2: Proliferation assay (HeLa cell line) median IC50
Method: Cultivated tumor cells (cells were ordered from ATCC, except HeLa-MaTu and HeLa-MaTu-ADR, which were ordered from EPO-GmbH, Berlin) were plated at a density of 1000 to 5000 cells/well, depending on the growth rate of the respective cell line, in a 96-well multititer plate in 200 μL of their respective growth medium supplemented 10% fetal calf serum. After 24 h, the cells of one plate (zero-point plate) were stained with crystal violet (see below), while the medium of the other plates was replaced by fresh culture medium (200 μL), to which the test substances were added in various concentrations (0 μM, as well as in the range of 0.001-10 μM; the final concentration of the solvent DMSO was 0.5%). The cells were incubated for 4 days in the presence of test substances. Cell proliferation was determined by staining the cells with crystal violet: the cells were fixed by adding 20 μL/measuring point of an 11% glutaric aldehyde solution for 15 min at rt. After three washing cycles of the fixed cells with water, the plates were dried at rt. The cells were stained by adding 100 μL/measuring point of a 0.1% crystal violet solution (pH 3.0). After three washing cycles of the stained cells with water, the plates were dried at rt. The dye was dissolved by adding 100 μL/measuring point of a 10% acetic acid solution. Absorbtion was determined by photometry at a wavelength of 595 nm. The change of cell number, in percent, was calculated by normalization of the measured values to the aborbtion values of the zero-point plate (=0%) and the absorbtion of the untreated (0 μm) cells (=100%). The IC50 values were determined by means of a 4 parameter fit.

[1] = target: T1, catalytic domain of human Bub1 (amino acids 704-1085) (Homo sapiens, UniProt O43683); assay: Bub1 kinase assay (TR-FRET); type: biochemical; conditions: 10 μM ATP, 1 μM peptide substrate, median, read-out: Biological Assay 1: Bub1 kinase assay median IC50
T1 construct: catalytic domain of human Bub1 (amino acids 704-1085); His6 (N); made in house; host or cells: Hi5 insect cells
T1 sequence (O43683 704-1085): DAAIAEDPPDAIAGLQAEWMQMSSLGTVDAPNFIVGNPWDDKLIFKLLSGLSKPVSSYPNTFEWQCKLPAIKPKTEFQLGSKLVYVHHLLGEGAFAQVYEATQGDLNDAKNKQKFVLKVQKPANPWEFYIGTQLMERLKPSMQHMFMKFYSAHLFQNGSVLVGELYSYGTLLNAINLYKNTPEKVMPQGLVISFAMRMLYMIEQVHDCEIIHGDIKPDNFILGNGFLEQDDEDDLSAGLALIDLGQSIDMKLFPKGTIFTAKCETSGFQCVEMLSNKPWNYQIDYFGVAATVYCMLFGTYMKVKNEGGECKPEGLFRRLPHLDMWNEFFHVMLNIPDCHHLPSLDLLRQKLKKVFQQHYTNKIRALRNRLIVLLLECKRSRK
Text: Bub1-inhibitory activities of compounds described in the present invention were quantified using a time-resolved fluorescence energy transfer (TR-FRET) kinase assay which measures phosphorylation of the synthetic peptide Biotin-Ahx-VLLPKKSFAEPG (C-terminus in amide form), purchased from e.g. Biosyntan (Berlin, Germany) by the (recombinant) catalytic domain of human Bub1 (amino acids 704-1085), expressed in Hi5 insect cells with an N-terminal His6-tag and purified by affinity- (Ni-NTA) and size exclusion chromatography.
In a typical assay 11 different concentrations of each compound (0.1 nM, 0.33 nM, 1.1 nM, 3.8 nM, 13 nM, 44 nM, 0.15 μM, 0.51 μM, 1.7 μM, 5.9 μM and 20 μM) were tested in duplicate within the same microtiter plate. To this end, 100-fold concentrated compound solutions (in DMSO) were previously prepared by serial dilution (1:3.4) of 2 mM stocks in a clear low volume 384-well source microtiter plate (Greiner Bio-One, Frickenhausen, Germany), from which 50 nL of compounds were transferred into a black low volume test microtiter plate from the same supplier. Subsequently, 2 μL of Bub1 (the final concentration of Bub1 was adjusted depending on the activity of the enzyme lot in order to be within the linear dynamic range of the assay: typically ˜200 ng/mL were used) in aqueous assay buffer [50 mM Tris/HCl pH 7.5, 10 mM magnesium chloride (MgCl2), 200 mM potassium chloride (KCl), 1.0 mM dithiothreitol (DTT), 0.1 mM sodium ortho-vanadate, 1% (v/v) glycerol, 0.01% (w/v) bovine serum albumine (BSA), 0.005% (v/v) Trition X-100 (Sigma), 1× Complete EDTA-free protease inhibitor mixture (Roche)] were added to the compounds in the test plate and the mixture was incubated for 15 min at 22° C. to allow pre-equilibration of the putative enzyme-inhibitor complexes before the start of the kinase reaction, which was initiated by the addition of 3 μL 1.67-fold concentrated solution (in assay buffer) of adenosine-tri-phosphate (ATP, 10 μM final concentration) and peptide substrate (1 μM final concentration). The resulting mixture (5 μL final volume) was incubated at 22° C. during 60 min, and the reaction was stopped by the addition of 5 μL of an aqueous EDTA-solution (50 mM EDTA, in 100 mM HEPES pH 7.5 and 0.2% (w/v) bovine serum albumin) which also contained the TR-FRET detection reagents (0.2 μM streptavidin-XL665 [Cisbio Bioassays, Codolet, France] and 1 nM anti-phosho-Serine antibody [Merck Millipore, cat. #35-001] and 0.4 nM LANCE EU-W1024 labeled anti-mouse IgG antibody [Perkin-Elmer, product no. AD0077, alternatively a Terbium-cryptate-labeled anti-mouse IgG antibody from Cisbio Bioassays can be used]). The stopped reaction mixture was further incubated 1 h at 22° C. in order to allow the formation of complexes between peptides and detection reagents. Subsequently, the amount of product was evaluated by measurement of the resonance energy transfer from the Eu-chelate-antibody complex recognizing the Phosphoserine residue to the streptavidin-XL665 bound to the biotin moiety of the peptide. To this end, the fluorescence emissions at 620 nm and 665 nm after excitation at 330-350 nm were measured in GTR-FRET plate reader, e.g. a Rubystar or Pherastar (both from BMG Labtechnologies, Offenburg, Germany) or a Viewlux (Perkin-Elmer) and the ratio of the emissions (665 nm/622 nm) was taken as indicator for the amount of phosphorylated substrate. The data were normalised using two sets of (typically 32-) control wells for high- (=enzyme reaction without inhibitor=0%=Minimum inhibition) and low- (=all assay components without enzyme=100%=Maximum inhibition) Bub1 activity. IC50 values were calculated by fitting the normalized inhibition data to a 4-parameter logistic equation (Minimum, Maximum, IC50, Hill; Y=Max+(Min−Max)/(1+(X/IC50)Hill)).

SMILES: COCC(=O)N(c1ccncc1)c1nc(-c2nn(Cc3ccccc3F)c3c2CCC3)nc(N)c1OC [Example 2-12-1, N-{6-amino-2-[1-(2-fluorobenzyl)-1,4,5,6-tetrahydrocyclopenta[c]-pyrazol-3-yl]-5-methoxypyrimidin-4-yl}-2-methoxy-N-(pyridin-4-yl)acetamide]
IC50 [1]: 6000 nM

SMILES: NC(=O)c1cnccc1N(CCO)c1nc(-c2nn(Cc3ccccc3F)c3c2CCC3)ncc1OCCO [Example 2-10-2, 4-[{2-[1-(2-fluoro-benzyl)-1,4,5,6-tetrahydrocyclopenta [c]pyrazol-3-yl]-5-(2-hydroxy-ethoxy)pyrimidin-4-yl}(2-hydroxy-ethyl)amino] nicotinamide]
IC50 (HeLa cell line): ≥ 10 µM
IC50 [1]: 2000 nM

SMILES: COc1ccc(Cn2nc(-c3ncc(OC)c(Nc4ccncc4)n3)c3c2CCC3)cc1 [Example 2-1-3, 5-methoxy-2-[1-(4-methoxy-benzyl)-1,4,5,6-tetrahydrocyclopenta [c]pyrazol-3-yl]-N-(pyridin-4-yl)pyrimidin-4-amine]
IC50 (HeLa cell line): ≥ 10 µM
IC50 [1]: 50 nM

SMILES: CCOC(=O)c1cnccc1Nc1nc(-c2nn(Cc3ccccc3F)c3c2CCC3)ncc1Oc1ccncc1C(=O)OCC [Example 2-9-1, ethyl 4-[(4-{[3-(ethoxycarbonyl)pyridin-4-yl]amino}-2-[1-(2-fluorobenzyl)-1,4,5,6-tetrahydrocyclopenta[c]pyrazol-3-yl]pyrimidin-5-yl)oxy]nicotinate]
IC50 [1]: 500 nM

SMILES: CCOc1cc(F)c(Cn2nc(-c3ncc(OCCO[Si](C)(C)C(C)(C)C)c(Nc4ccncc4)n3)c3c2CCC3)c(F)c1 [Example 2-3-6, 5-(2-{[tert-butyl (dimethyl)silyl]oxy}ethoxy)-2-[1-(4-ethoxy-2,6-difluoro-benzyl)-1,4,5,6-tetrahydrocyclopenta [c]pyrazol-3-yl]-N-(pyridin-4-yl)pyrimidin-4-amine]
IC50 [1]: 100 nM

SMILES: Nc1nc(-c2nn(Cc3ccccc3F)c3c2CCC3)nc(Nc2ccncc2)c1N1CCOCC1 [Example 2-1-5, 2-[1-(2-fluoro-benzyl)-1,4,5,6-tetrahydrocyclopenta [c]pyrazol-3-yl]-5-(morpholin-4-yl)-N-(pyridin-4-yl)pyrimidin-4,6-diamine]
IC50 [1]: 100 nM

SMILES: CCOc1cc(F)c(Cn2nc(-c3ncc(O)c(Nc4ccncc4)n3)c3c2CCC3)c(F)c1 [Example 2-2-1, 2-[1-(4-ethoxy-2,6-difluorobenzyl)-1,4,5,6-tetrahydrocyclopenta-[c]pyrazol-3-yl]-4-(pyridin-4-ylamino)pyrimidin-5-ol]
IC50 (HeLa cell line): ≥ 10 µM
IC50 [1]: 20 nM

SMILES: COc1ccc(Cn2nc(-c3ncc(O)c(Nc4ccncc4)n3)c3c2CCC3)cc1 [Example 2-2-3, 2-[1-(4-methoxy-benzyl)-1,4,5,6-tetrahydrocyclopenta [c]pyrazol-3-yl]-4-(pyridin-4-ylamino) pyrimidin-5-ol]
IC50 (HeLa cell line): ≥ 10 µM
IC50 [1]: 100 nM

SMILES: Fc1ccccc1Cn1nc(-c2nc(Nc3ccncc3)c(N3CCOCC3)c(Nc3ccncc3)n2)c2c1CCC2 [Example 2-1-8, 2-[1-(2-fluoro-benzyl)-1,4,5,6-tetrahydrocyclopenta[c]pyrazol-3-yl]-5-(morpholin-4-yl)-N,N′-di(pyridin-4-yl)pyrimidin-4,6-diamine]
IC50 [1]: 3000 nM

Now from value to compound:

IC50 (HeLa cell line): ≥ 10 µM
IC50 [1]: 40 nM
SMILES: CCOC(=O)c1cnccc1Nc1nc(-c2nn(Cc3ccccc3F)c3c2CCC3)ncc1OCC1(CO)COC1 [Example 2-3-4, ethyl 4-[(2-[1-(2-fluoro-benzyl)-1,4,5,6-tetrahydrocyclopenta [c]pyrazol-3-yl]-5-{[3-(hydroxymethyl)oxetan-3-yl]methoxy}pyrimidin-4-yl)amino] nicotinate]

IC50 (HeLa cell line): ≥ 10 µM
IC50 [1]: 100 nM
SMILES: CS(=O)(=O)CCCOc1cnc(-c2nn(Cc3ccccc3F)c3c2CCC3)nc1Nc1ccncc1C(N)=O [Example 2-3-9, 4-({2-[1-(2-fluoro-benzyl)-1,4,5,6-tetrahydrocyclopenta [c]pyrazol-3-yl]-5-[3-(methyl-sulfonyl)propoxy]pyrimidin-4-yl}amino) nicotinamide]

IC50 (HeLa cell line): 4 µM
IC50 [1]: 40 nM
SMILES: N#Cc1cnccc1Nc1nc(-c2nn(Cc3ccccc3F)c3c2CCC3)ncc1OCC1(CO)COC1 [Example 2-3-5, 4-[(2-[1-(2-fluoro-benzyl)-1,4,5,6-tetrahydrocyclopenta [c]pyrazol-3-yl]-5-{[3-(hydroxymethyl)oxetan-3-yl]methoxy}pyrimidin-4-yl)amino] nicotinonitrile]

IC50 (HeLa cell line): ≥ 10 µM
IC50 [1]: 30 nM
SMILES: CCOC(=O)c1cnccc1Nc1nc(-c2nn(Cc3ccccc3F)c3c2CCC3)ncc1O [Example 2-8-1, ethyl 4-({2-[1-(2-fluorobenzyl)-1,4,5,6-tetrahydrocyclopenta[c]pyrazol-3-yl]-5-hydroxypyrimidin-4-yl}amino)nicotinate]

IC50 (HeLa cell line): ≥ 10 µM
IC50 [1]: 200 nM
SMILES: NC(=O)c1cnccc1Nc1nc(-c2nn(Cc3ccccc3F)c3c2CCC3)ncc1O [Example 2-1-12, 4-({2-[1-(2-fluoro-benzyl)-1,4,5,6-tetrahydrocyclopenta [c]pyrazol-3-yl]-5-hydroxy-pyrimidin-4-yl}amino) nicotinamide]

IC50 (HeLa cell line): ≥ 10 µM
IC50 [1]: 200 nM
SMILES: COc1cnc(-c2nn(Cc3ccccc3F)c3c2CCC3)nc1Nc1ccncc1C#N [Example 2-1-7, 4-({2-[1-(2-fluoro-benzyl)-1,4,5,6-tetrahydrocyclopenta [c]pyrazol-3-yl]-5-methoxy-pyrimidin-4-yl}amino) nicotinonitrile]

IC50 [1]: 120 nM
SMILES: COc1c(NC(C)=O)nc(-c2nn(Cc3ccccc3F)c3c2CCC3)nc1Nc1ccncc1 [Example 2-1-11, N-{2-[1-(2-fluoro-benzyl)-1,4,5,6-tetrahydrocyclopenta [c]pyrazol-3-yl]-5-methoxy-6-(pyridin-4-ylamino)pyrimidin-4-yl}acetamide]

IC50 [1]: 20 nM
SMILES: CSCCOc1cnc(-c2nn(Cc3ccccc3F)c3c2CCC3)nc1Nc1ccncc1C(N)=O [Example 2-3-8, 4-({2-[1-(2-fluoro-benzyl)-1,4,5,6-tetrahydrocyclopenta [c]pyrazol-3-yl]-5-[2-(methyl-sulfanyl)ethoxy]pyrimidin-4-yl}amino) nicotinamide]
